“Also recorded” adds a separate entry of the source.
Assays:
[1] = test system: APJ homodimer; experiment: MALDI-TOF MS of immunoprecipitated APJ complex after treatment with HIV TAT-TMD interference peptides; type: binding, human; conditions: peptide 4 μM, 60 min, 37 °C; for species detected by MALDI-TOF MS / effect of peptide on APJ homodimerization: cells transfected with APJ, anti-APJ immunoprecipitation, MALDI-TOF linear positive mode, mass range 4–10 kDa, sinapic acid; for binding to APJ (peptides encoding TMDs, MS): MALDI-TOF
Source text: TMDs are important for the formation of head-to-head interfaces in class A GPCR dimers. To identify dimerization interfaces in the seven TMDs of APJ, the effects of cell-penetrating interference peptides (containing the sequence of the hydrophobic transmembrane helices) on APJ homodimerization were examined by MS.
Figure 5 The effects of interference peptides on apelin receptor (APJ) homodimerization as measured by matrix assisted laser desorption […] time-of-flight (MALDI-TOF) mass spectrometry.
The identity of the TMD peptide sequences was analyzed with liquid chromatography (LC)-MS.
MS was performed to identity APJ dimer interfaces in samples treated with TMD peptides. Cells were transfected with APJ and, 48 h later, treated with or without the indicated HIV TAT-TMD fused peptides (4 μM) for 60 min at 37 °C. Extracted proteins were immunoprecipitated using an anti-APJ antibody. Protein A/G PLUS-agarose beads were incubated with proteins for 2 h and washed four times with lysis buffer. The APJ complex was eluted from beads as described previously. Then, the endogenous APJ complex was analyzed with an AXIMA matrix-assisted laser desorption/ionization time-of-flight (MALDI-TOF) system (Shimazdu) in linear positive mode. The mass range was 4–10 kDa and the matrix was Sinapic Acid (SA), 10 mg/ml (50% acetonitrile (ACN), 50% H2O, 0.1% […] (TFA)). The results were calibrated with a Shimadzu MALDI calibration kit (Laser BioLabs).

[2] = test system: APJ dimer (APJ-Rluc / APJ-EGFP); experiment: BRET, effect of interference peptides on APJ homodimers; type: cell-based, human; conditions: for effect on APJ dimer BRET signals / reduction of APJ dimer BRET signals: CHO cells, APJ-Rluc:APJ-EGFP 1:3, peptide 4 μM, 37 °C, four independent experiments in triplicate; for disruption of APJ (homo)dimerization (statement in words): interference peptides 4 μM, in vitro, by BRET and MS; for reduction of APJ dimer BRET signals: P < 0.01, one range for TMD1, 2, 3 and 4
Source text: Figure 7 The effect of interference peptides on apelin receptor (APJ) dimers. […] BRET[1] was detected as described above.

[3] = test system: APJ homodimers (APJ-Rluc / APJ-EGFP); experiment: BRET, effect of agonist/antagonist treatment on APJ homodimerization; type: cell-based, human; conditions: CHO cells co-expressing APJ-Rluc and APJ-EGFP (1:1); concentration not given; four independent experiments in triplicate
Description: We further assessed APJ interactions by co-immunoprecipitation (Co-IP), BRET[1], and Förster resonance energy transfer (FRET). […] BRET studies were performed to confirm APJ homodimerization.
Figure 2 Assessment of apelin receptor (APJ) dimerization using co-immunoprecipitation (Co-IP) and bioluminescence resonance energy transfer (BRET) assays. (A) Assessment of APJ homodimerization with Co-IP. Chinese hamster ovary (CHO) cells were either not transfected (mock) or transfected with HA-APJ, Myc-APJ, or both (co-transfection). HA-APJ and Myc-APJ were also mixed (mix). Immunoprecipitated samples were resolved by SDS-PAGE and immunoblotted with an anti-Myc antibody (upper panel). […] (B) Assessment of APJ homodimerization with BRET[1]. (C) BRET saturation curves. (D) Assessment of effects of agonist-treatment on dimerization by BRET[1]. For BRET, four independent experiments were performed with triplicate samples and the results were expressed as the mean ± SEM of four experiments ([…] versus control group; NS, not significant versus unstimulated cells).
(§1) To monitor constitutive APJ interactions, CHO cells were transfected with APJ-Rluc and APJ-EGFP plasmids at a ratio of 1:1, 1:2, 1:3, 1:4, 1:5, and 1:6 to express a constant amount of donor-labeled protein with increasing amounts of acceptor-labeled protein. At 24 h post-transfection, cells were trypsinized and plated on a 96 well microplate for 24 h in HEPES-buffered phenol red-free medium (Invitrogen, Life Technologies). Coelenterazine h (5 μM; Promega) was added for BRET measurements using a Tristar LB941 plate reader (Berthold) with an Rluc filter (400–475 nm) and a EGFP filter (500–550 nm). To monitor the induced interactions of APJ, BRET signals were measured as described above, with slight modifications. […] To measure the effects of interference peptides on APJ dimers, CHO cells were co-transfected with APJ-Rluc and APJ-EGFP (1:3) and incubated with interference peptides corresponding to TMD1, TMD2, TMD3, TMD4, TMD5, TMD6, and TMD7 at 37 °C (4 μM), and BRET[1] detected as described above.

[4] = test system: APJ oligomers (APJ-Rluc, APJ-VN173, APJ-VC155); experiment: BiFC-BRET, effect of agonist/antagonist treatment on APJ oligomerization; type: cell-based, human; conditions: CHO cells co-expressing APJ-Rluc, concentration not given, four independent experiments in triplicate
Description: Additionally, BiFC-BRET assays were performed to detect APJ oligomerization in living cells. Two non-fluorescent fragments (pCE-BiFC-VN173 and pCE-BiFC-VC155) of Venus fluorescent protein were separately fused to APJ (APJ-VN173 and APJ-VC155) (Fig. 4A). CHO cells were then co-transfected with APJ-Rluc, APJ-VN173, and APJ-VC155 and observed with TIRFM.
Figure 4 Assessment of apelin receptor (APJ) oligomerization with bioluminescence resonance energy transfer - bimolecular fluorescence complementation (BiFC-BRET). (A) Principle of BiFC-BRET. The assay examines the formation of functional Venus by the complementation of protein fragments fused to APJ. Association of APJ enables formation of a bimolecular fluorescent complex. If all three tagged APJ proteins interact, BRET can occur. (B) TIRFM detection of APJ dimers (yellow particles) after BiFC. (C) Assessment of APJ oligomerization with BiFC-BRET. (D) Assessment of agonist-induced oligomerization.

[5] = test system: APJ dimers; experiment: BiFC-BRET, Gα-Rluc8, APJ-VN173 and APJ-VC155, G protein activation by APJ dimers; type: cell-based, human
Source text: To explore the novel signaling of APJ dimers, we examined the signaling of APJ dimers using BiFC-BRET. […] Cells expressing Gα-Rluc8 and APJ-Venus served as a positive control, and two negative controls (Gα-Rluc8 and APJ-VN173, Gα-Rluc8 and APJ-VC155A) were also introduced. […] (Fig. S5). […] In addition, we have measured the expression levels of donor[23] and acceptor before experiment (Fig. 10).
Kinetics of ligand-induced BRET between Gα-Rluc8 (8 subtypes), APJ-VN173, and APJ-VC155. […] (A) Gαi1-Rluc8, APJ-VN173, and APJ-VC155; (B) Gαi2-Rluc8, APJ-VN173, and APJ-VC155; (C) Gαi3-Rluc8, APJ-VN173, and APJ-VC155; (D) Gαq-Rluc8, APJ-VN173, and APJ-VC155; (E) Gαs-Rluc8, APJ-VN173, and APJ-VC155; (F) Gαo-Rluc8, APJ-VN173, and APJ-VC155; (G) Gα12-Rluc8, APJ-VN173, and APJ-VC155; H. Gα13-Rluc8, APJ-VN173, and APJ-VC155.
APJ-VN173 and APJ-VC155 were generated by fusing either the N-terminal fragment of Venus (Venus N: amino acids 1–172) or the C-terminal fragment of Venus (Venus C: amino acids 156–239) to the C-terminus of the wild-type (wt) full-length apelin receptor. Gαi1-Rluc8, Gαi2-Rluc8, Gαi3-Rluc8, Gαq-Rluc8, Gαoa-Rluc8, and Gαs-Rluc8, pET-21a(+)-GFP, FLAG-BirA-APJ, and HA-AP-APJ were constructed as described previously.
as §1

[6] = APJ dimers (APJ-VN173 + APJ-VC155), CHO cells, 1 μM apelin-13, 30 min

With “YGRKKRRQRRRRLLSIIVVLVVTFALCWMPYHLV [TMD6, HIV TAT-fused interference peptide derived from human APJ transmembrane domain 6]” the “species detected by MALDI-TOF MS / effect of peptide on APJ homodimerization” value [1] was “lacked the effect demonstrated by TMD1, 2, 3, and 4; also recorded: TMD6, APJ, and APJ dimers were detected”, the “effect on APJ dimer BRET signals” value [2] was “no significant effect” and the “disruption of APJ (homo)dimerization (statement in words)” value (“disruption of APJ (homo)dimerization” below) [2] was “but not TMD5, 6, and 7, disrupted APJ dimerization”.

With “YGRKKRRQRRRFIASLAVADLTFVVTLPLWATYT [TMD2, HIV TAT-fused interference peptide derived from human APJ transmembrane domain 2]” the “species detected by MALDI-TOF MS / effect of peptide on APJ homodimerization” value [1] was “TMD2, TMD2 dimers, TMD2 tetramers, APJ, [APJ + TMD2], APJ dimers, and [APJ + TMD2] dimers were detected”, the “binding to APJ (peptides encoding TMDs, MS)” value (“binding to APJ” below) [1] was “can bind to APJ” and the “effect on APJ dimer BRET signals” value [2] was “significantly reduced APJ dimer BRET signals”. The “reduction of APJ dimer BRET signals” value [2] was 55–75% and the “disruption of APJ (homo)dimerization” value [2] was “disrupted APJ dimerization; also recorded: can effectively disrupt the formation of APJ homodimers; also recorded: disrupted APJ homodimerization in vitro”.

In the case of [Ala13]apelin-13, the “BRET signal versus unstimulated cells (APJ homodimer formation)” value (“BRET signal versus unstimulated cells” below) [3] is reported as “not significantly different to those of unstimulated cells”.

“YGRKKRRQRRRVSGAVATAVLWVLAALLAMPVMV [TMD4, HIV TAT-fused interference peptide derived from human APJ transmembrane domain 4]” was tested, and the “species detected by MALDI-TOF MS / effect of peptide on APJ homodimerization” value [1] was “TMD4, TMD4 dimers, TMD4 tetramers, APJ, [APJ + TMD4], APJ dimers, and [APJ + TMD4] dimers were detected”, the “binding to APJ” value [1] was “can bind to APJ” and the “effect on APJ dimer BRET signals” value [2] was “significantly reduced APJ dimer BRET signals”. For the same substance, the “reduction of APJ dimer BRET signals” value [2] was 55–75% and the “disruption of APJ (homo)dimerization” value [2] was “disrupted APJ dimerization; also recorded: can effectively disrupt the formation of APJ homodimers; also recorded: disrupted APJ homodimerization in vitro”.

For “apelin-36: APJ agonist purchased from Phoenix Pharmaceuticals (LVQPRGSRNGPGPWQGGRRKFRRQRPRLSHKGPMPF; Apelin-36; UniProt Q9ULZ1 42-77, looked up)”, the “BRET signal versus unstimulated cells” value [3] was “not significantly different to those of unstimulated cells” and the “BRET ratio versus unstimulated cells (APJ oligomerization, BiFC-BRET)” value [4] was “the same as that of unstimulated cells”.

“LMNIFPYCTCISYVNSCLNPFLYYGRKKRRQRRR [TMD7, HIV TAT-fused interference peptide derived from human APJ transmembrane domain 7]” was tested, and the “species detected by MALDI-TOF MS / effect of peptide on APJ homodimerization” value [1] was “lacked the effect demonstrated by TMD1, 2, 3, and 4; also recorded: TMD7, APJ, and APJ dimers were detected”, the “effect on APJ dimer BRET signals” value [2] was “no significant effect” and the “disruption of APJ (homo)dimerization” value [2] was “but not TMD5, 6, and 7, disrupted APJ dimerization”.

With “VSSTTVGFVVPFTIMLTCYFFIAYGRKKRRQRRR [TMD5, HIV TAT-fused interference peptide derived from human APJ transmembrane domain 5]” the “species detected by MALDI-TOF MS / effect of peptide on APJ homodimerization” value [1] was “lacked the effect demonstrated by TMD1, 2, 3, and 4; also recorded: TMD5, APJ, and APJ dimers were detected”, the “effect on APJ dimer BRET signals” value [2] was “no significant effect” and the “disruption of APJ (homo)dimerization” value [2] was “but not TMD5, 6, and 7, disrupted APJ dimerization”.

In the case of apelin-13, the “BRET signal versus unstimulated cells” value [3] is reported as “not significantly different to those of unstimulated cells”, the “G protein activation, Gα12” value [5, 6] is reported as “not Gαi1, Gαi2, Gαs, Gα12, Gα13, and Gαo” and the “G protein activation, Gα13” value [5, 6] is reported as “not Gαi1, Gαi2, Gαs, Gα12, Gα13, and Gαo”. For the same substance, the “G protein activation, Gαi1” value [5, 6] was “not Gαi1, Gαi2, Gαs, Gα12, Gα13, and Gαo”, the “G protein activation, Gαi2” value [5, 6] was “not Gαi1, Gαi2, Gαs, Gα12, Gα13, and Gαo” and the “G protein activation, Gαi3” value [5, 6] was “activate only Gαi3 and Gαq”. The “G protein activation, Gαo” value [5, 6] was “not Gαi1, Gαi2, Gαs, Gα12, Gα13, and Gαo”, the “G protein activation, Gαq” value [5, 6] was “activate only Gαi3 and Gαq” and the “G protein activation, Gαs” value [5, 6] was “not Gαi1, Gαi2, Gαs, Gα12, Gα13, and Gαo”. The “ligand-induced BRET change, cells expressing APJ tagged with VN173 and VC155” value ([5]; Gα-Rluc8 (8 subtypes), CHO cells, 1 μM apelin-13) was “an increase in BRET was observed only for Gαi3 and Gαq” and the “ligand-induced BRET change, negative controls” value ([5]; Gα-Rluc8 with APJ-VN173 only or APJ-VC155 only, 1 μM apelin-13) was “No changes in BRET were observed”.

For “IFVNMYASVFCLTGLSFDRYLAIYGRKKRRQRRR [TMD3, HIV TAT-fused interference peptide derived from human APJ transmembrane domain 3]”, the “species detected by MALDI-TOF MS / effect of peptide on APJ homodimerization” value [1] was “TMD3, TMD3 dimers, TMD3 tetramers, APJ, [APJ + TMD3], APJ dimers, and [APJ + TMD3] dimers were detected”, the “binding to APJ” value [1] was “can bind to APJ” and the “effect on APJ dimer BRET signals” value [2] was “significantly reduced APJ dimer BRET signals”. For the same substance, the “reduction of APJ dimer BRET signals” value [2] was 55–75% and the “disruption of APJ (homo)dimerization” value [2] was “disrupted APJ dimerization; also recorded: can effectively disrupt the formation of APJ homodimers; also recorded: disrupted APJ homodimerization in vitro”.

Reference: paper PMC5238433 (Scientific Reports, 2017)
